Measurements published in patent US7786064B1, “Ionic liquids derived from functionalized anionic surfactants” (The Procter & Gamble Company, priority 2004, dated 2010).

Assay: Water Miscibility Test
Type: physicochemical
Conditions: 0.5 g ionic liquid and 4.5 g de-ionized water, sonicated 1.5 hours; miscible if homogenous transparent system within 15 minutes of standing
Experimental: “Hydrophilic ionic compound” or “water miscible ionic compound” as used herein refers to ionic compound that is partially or wholly miscible with water, i.e. it is capable of forming a visually homogenous or transparent mixture with water according to the Water Miscibility Test described herein. The water miscibility of an ionic liquid is measured by the following water miscibility test. A mixture of 0.5 g ionic liquid and 4.5 g de-ionized water are sonicated in a Bransonic Ultrasonic Bath (model # 1210R-MTH, 50/60 Hz, 117 volts, 1.3 AMPS) according to manufacture's specifications for 1.5 hours. Thereafter, if a homogenous transparent system results within 15 minutes of standing without agitation, then the ionic liquid is water miscible.

## Tetraoctyl Ammonium Dodecylbenzenesulfonate [Example 3]
  Water Miscible?: No

## Tetraoctyl Ammonium Mid-Chain Branched Dodecylsulfate [Example 1]
  Water Miscible?: No

## Triisooctylmethyl Ammonium Mid-Chain Branched Dodecylsulfate [Example 2]
  Water Miscible?: No
